Reference: US5543415A, “Antidepressants” (Kyowa Hakko Kogyo Co., Ltd., priority 1992, dated 1996)

What follows are compounds tested on clonidine-induced aggressive behavior (assay: Effect on Clonidine-Induced Aggressive Behavior (number of biting attacks during 30 minutes)). Conditions: 2.5 mg/kg, po; 60 min before clonidine 20 mg/kg ip; 30 min count.
Format: in vivo, male ddY mice
Description: The effect of a test compound on the aggressive behavior induced by intraperitoneal administration of clonidine was investigated. […] The experiment was performed by using several groups of male ddY mice (weighing 20 to 25 g, Japan SLC), each group consisting of two mice. The test compound was suspended in injectable distilled water (Otsuka Pharmaceutical Co., Ltd.) containing Tween 80 [polyoxyethylene (20) sorbitan monooleate]. Clonidine hydrochloride (Sigma Co.) was dissolved in physiological saline solution (Otsuka Pharmaceutical Co., Ltd.). The test compound suspension and the control suspension were orally administered to separate groups of the mice (0.1 ml per 10 g of body weight). Sixty minutes after the oral administration of the test compound, clonidine hydrochloride (20 mg/kg) was intraperitoneally injected. The number of biting attacks during 30 minutes after clonidine treatment was counted. The effect of the compound was evaluated by comparing the average number of biting attacks of the test compound-administered groups with that of control groups (Statistical comparison: Student's t-test).

Structure (SMILES)	Number of the Biting Attacks (mean ± S.E.M.), Test Compound-Treated Group
CCCn1c(=O)c2c(nc(/C=C/c3ccc4c(c3)OCCO4)n2C)n(CCC)c1=O [Compound 18, (E)-8-[2-(1,4-Benzodioxan-6-yl)vinyl]-7-methyl-1,3-dipropylxanthine]	8.6 ± 3.74

Same assay, conditions: 10 mg/kg, po; 60 min before clonidine 20 mg/kg ip; 30 min count

Structure (SMILES)	Number of the Biting Attacks (mean ± S.E.M.), Test Compound-Treated Group
CCCn1c(=O)c2c(nc(/C=C/c3ccc4c(c3)OCCO4)n2C)n(CCC)c1=O [Compound 18, (E)-8-[2-(1,4-Benzodioxan-6-yl)vinyl]-7-methyl-1,3-dipropylxanthine]	26.2 ± 7.32
CCCn1c(=O)c2c(nc(/C=C/c3ccc(OCC)cc3)n2C)n(CCC)c1=O [Compound 49, (E)-8-(4-Ethoxystyryl)-7-methyl-1,3-dipropylxanthine]	81.5 ± 13.97
Cn1c(=O)c2[nH]cnc2n(C)c1=O [theophylline, reference compound]	18.6 ± 3.58

Same assay, conditions: Mus musculus, po, read-out: Number of the Attacks of Test Compound-Treated Group/Number of the Attacks of Control Group

Structure (SMILES)	response vs control in vivo at 10 mg/kg
Cn1c(=O)c2[nH]cnc2n(C)c1=O [theophylline, reference compound]	520%

Same assay, conditions: Mus musculus; 2.5 mg/kg, po; read-out: Number of the Attacks of Test Compound-Treated Group/Number of the Attacks of Control Group

Structure (SMILES)	response vs control in vivo at 2.5 mg/kg
CCCn1c(=O)c2c(nc(/C=C/c3ccc4c(c3)OCCO4)n2C)n(CCC)c1=O [Compound 18, (E)-8-[2-(1,4-Benzodioxan-6-yl)vinyl]-7-methyl-1,3-dipropylxanthine]	390%

Same assay, conditions: Mus musculus; 10 mg/kg, po; read-out: Number of the Attacks of Test Compound-Treated Group/Number of the Attacks of Control Group

Structure (SMILES)	response vs control in vivo at 10 mg/kg
CCCn1c(=O)c2c(nc(/C=C/c3ccc4c(c3)OCCO4)n2C)n(CCC)c1=O [Compound 18, (E)-8-[2-(1,4-Benzodioxan-6-yl)vinyl]-7-methyl-1,3-dipropylxanthine]	640%

These compounds were tested on ddY-strain male mice (assay: Acute Toxicity Test (minimum lethal dose, oral)). Conditions: seven days after administration.
Format: in vivo
Description: Test compounds were orally administered to groups of ddY-strain male mice weighing 20±1 g, each group consisting of three mice. Seven days after the administration, minimum lethal dose (MLD) of each compound was determined by observing the mortality.

Structure (SMILES)	MLD (minimum lethal dose)
CCCn1c(=O)c2c(nc(/C=C/c3ccc4c(c3)OCCO4)n2C)n(CCC)c1=O [Compound 18, (E)-8-[2-(1,4-Benzodioxan-6-yl)vinyl]-7-methyl-1,3-dipropylxanthine]	> 300 mg/kg
CCCn1c(=O)c2c(nc(/C=C/c3ccc(OCC)cc3)n2C)n(CCC)c1=O [Compound 49, (E)-8-(4-Ethoxystyryl)-7-methyl-1,3-dipropylxanthine]	> 300 mg/kg
CCn1c(=O)c2[nH]c(C(F)=Cc3ccccc3)nc2n(CC)c1=O (stereo in doubt) [Compound 137, (E)-1,3-Diethyl-8-(α-fluorostyryl)xanthine]	> 100 mg/kg
CCn1c(=O)c2[nH]c(/C=C/c3ccc(O)cc3)nc2n(CC)c1=O [Compound 193, (E)-1,3-Diethyl-8-(4-hydroxystyryl)xanthine]	> 100 mg/kg
CCCn1c(=O)c2nc(/C=C/c3ccc(OC)c(OC)c3OC)[nH]c2n(CCC)c1=O [Compound 21, (E)-1,3-Dipropyl-8-(2,3,4-trimethoxystyryl)xanthine]	> 300 mg/kg
CCn1c(=O)c2c(nc(/C=C/c3ccc(O)c(C)c3C)n2C)n(CC)c1=O [Compound 194, (E)-1,3-Diethyl-8-(4-hydroxy-2,3-dimethylstyryl)-7-methylxanthine]	> 100 mg/kg
CCn1c(=O)c2[nH]c(/C=C/c3cccc(OC)c3OC)nc2n(CC)c1=O [Compound 75, (E)-8-(2,3-Dimethoxystyryl)-1,3-diethylxanthine]	> 300 mg/kg
CCn1c(=O)c2c(nc(/C=C/c3ccc(O)c(O)c3)n2C)n(CC)c1=O [Compound 182, (E)-8-(3,4-Dihydroxystyryl)-1,3-diethyl-7-methylxanthine]	> 100 mg/kg
CCn1c(=O)c2[nH]c(/C=C/c3cccc(C(F)(F)F)c3)nc2n(CC)c1=O [Compound 163, (E)-1,3-Diethyl-8-(3-trifluoromethylstyryl)xanthine]	> 100 mg/kg
CCCn1c(=O)c2c(nc(/C=C\c3ccc(OC)c(OC)c3)n2C)n(CCC)c1=O [Compound 65, (Z)-8-(3,4-Dimethoxystyryl)-7-methyl-1,3-dipropylxanthine]	> 300 mg/kg
CCn1c(=O)c2[nH]c(/C=C/c3ccc(-c4ccccc4)cc3)nc2n(CC)c1=O [Compound 170, (E)-1,3-Diethyl-8-(4-phenylstyryl)xanthine]	> 100 mg/kg
CCCn1c(=O)c2[nH]c(/C=C/c3cccc(OC)c3OC)nc2n(CCC)c1=O [Compound 29, (E)-8-(2,3-Dimethoxystyryl)-1,3-dipropylxanthine]	> 100 mg/kg
CCCn1c(=O)c2c(nc(/C=C/c3cccc(Cl)c3)n2C)n(CCC)c1=O [Compound 40, (E)-8-(3-Chlorostyryl)-7-methyl-1,3-dipropylxanthine]	> 300 mg/kg
CCn1c(=O)c2c(nc(/C=C/c3ccc(-c4ccccc4)cc3)n2C)n(CC)c1=O [Compound 171, (E)-1,3-Diethyl-7-methyl-8-(4-phenylstyryl)xanthine]	> 100 mg/kg
CCCn1c(=O)c2c(nc(/C=C/c3cc(OC)c(OC)cc3Br)n2C)n(CCC)c1=O [Compound 59, (E)-8-(2-Bromo-4,5-dimethoxystyryl)-7-methyl-1,3-dipropylxanthine]	> 300 mg/kg
CCCn1c(=O)c2[nH]c(/C=C/c3ccc(OC)c(C)c3OC)nc2n(CCC)c1=O [Compound 15, (E)-8-(2,4-Dimethoxy-3-methylstyryl)-1,3-dipropylxanthine]	> 100 mg/kg
CCCn1c(=O)c2c(nc(/C=C/c3cc(OC)c(OCc4ccccc4)c(OC)c3)n2C)n(CCC)c1=O [Compound 28, (E)-8-(4-Benzyloxy-3,5-dimethoxystyryl)-7-methyl-1,3-dipropylxanthine]	> 100 mg/kg
COc1ccc(/C=C/c2nc3c([nH]2)c(=O)n(C)c(=O)n3C)c(C)c1C [Compound 93, (E)-8-(4-Methoxy-2,3-dimethylstyryl)theophylline]	> 100 mg/kg
CCn1c(=O)c2c(nc(/C=C/c3cccc(OC(F)(F)F)c3)n2C)n(CC)c1=O [Compound 144, (E)-1,3-Diethyl-7-methyl-8-(3-trifluoromethoxystyryl)xanthine]	> 100 mg/kg
COc1cc(/C=C/c2nc3c(=O)n(C)c(=O)n(C)c3[nH]2)cc(OC)c1OC [Compound 11, (E)-8-(3,4,5-trimethoxystyryl)theophylline]	> 300 mg/kg
CCn1c(=O)c2[nH]c(/C=C/c3cccc(F)c3C)nc2n(CC)c1=O [Compound 180, (E)-1,3-Diethyl-8-(3-fluoro-2-methylstyryl)xanthine]	> 100 mg/kg
CCCn1c(=O)c2[nH]c(/C=C/c3ccc(OC)c4ccccc34)nc2n(CCC)c1=O [Compound 62, (E)-8-[2-(4-Methoxynaphthyl)vinyl]-1,3-dipropylxanthine]	> 100 mg/kg
CCn1c(=O)c2[nH]c(/C=C/c3ccc(N(C)C)cc3)nc2n(CC)c1=O [Compound 169, (E)-8-[4-(N,N-Dimethylamino)styryl]-1,3-diethylxanthine]	> 100 mg/kg
CCn1c(=O)c2[nH]c(/C=C/c3cc(OC)c4c(c3)OCO4)nc2n(CC)c1=O [Compound 178, (E)-1,3-Diethyl-8-(3-methoxy-4,5-methylenedioxystyryl)xanthine]	> 100 mg/kg
CCCCOc1ccc(/C=C/c2nc3c([nH]2)c(=O)n(CC)c(=O)n3CC)cc1 [Compound 147, (E)-8-(4-Butoxystyryl)-1,3-diethylxanthine]	> 100 mg/kg
CCn1c(=O)c2[nH]c(/C=C/c3cccc(Cl)c3)nc2n(CC)c1=O [Compound 131, (E)-8-(3-Chlorostyryl)-1,3-diethylxanthine]	> 100 mg/kg
CCCn1c(=O)c2c(nc(/C=C/c3ccc(OC)c(O)c3)n2C)n(CCC)c1=O [Compound 64, (E)-8-(3-Hydroxy-4-methoxystyryl)-7-methyl-1,3-dipropylxanthine]	> 100 mg/kg
CCn1c(=O)c2[nH]c(/C=C/c3cc4c(cc3Br)OCO4)nc2n(CC)c1=O [Compound 165, (E)-8-(2-Bromo-4,5-methylenedioxystyryl)-1,3-diethylxanthine]	> 100 mg/kg
CCCn1c(=O)c2c(nc(/C=C/c3cccc([N+](=O)[O-])c3)n2C)n(CCC)c1=O [Compound 36, (E)-7-Methyl-8-(3-nitrostyryl)-1,3-dipropylxanthine]	> 100 mg/kg
